The target of one assay is T1, PLEKHA7 PH-domain (Homo sapiens, UniProt Q6IQ23).
T1 construct: The plekstrin homology domain of CNK and PLEKHA7 expressed with GST at the N-terminus; made in house
T1 sequence (Q6IQ23 164-282 limits assumed): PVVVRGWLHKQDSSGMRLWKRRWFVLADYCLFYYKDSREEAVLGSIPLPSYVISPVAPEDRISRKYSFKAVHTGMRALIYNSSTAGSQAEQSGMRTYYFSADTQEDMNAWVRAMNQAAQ
In words: Surface plasmon resonance binding to PLEKHA7 PH-domain. The note with it: SPR; read-out: PLEK KD. The method, then:
The plekstrin homology domain of CNK and PLEKHA7 expressed with GST at the N-terminus, CNK(PH)-GST were immobilized on a CM5 chip. Analysis of potential small molecule drug binding was done using a Biacore T200. Immobilization of antibody was run at 37° C. and a flow rate of 5 μL/min. A freshly prepared mixture of aqueous 0.4M 1-ethyl-3-(3-dimethylaminopropyl)carbodiimide hydrochloride (EDC) and aqueous 0.1M N-hydroxysuccinamide (NETS), (0.2M/0.05M EDC/NHS solution) is injected for 480 seconds over a conditioned (Tanious, et al doi:10.1016/50091-679X(07)84003-9) CM5 chip flow cell. The activated surface is then injected at 37° C., flow rate of 5 μL/min for 480 sec with 30 μg/mL anti-GST antibody, freshly suspended in pH 5.0 10 mM acetate buffer. Expected capture is 12000-20000 response units (RU). The remaining active surface is deactivated with 480 sec injections of 0.1M ethylenediamine in borate buffer (GE Healthcare) and then 1M ethanolamine pH 8.5 to provide 10000-18000 RU of covalently linked antibody on the flow cell. An upstream reference flow cell (Fc1) and a downstream working flow cell (Fc2) are prepared in this manner. […] Binding responses were determined 4 seconds prior to the conclusion of the injection. […]

For assay [1], the system named is mut-KRas NSCLC lines. The assay is described as follows: Proliferation assay 3D, mut-KRas NSCLC lines. The class given is cell-based. The method, then: The plates were optimized for the best cell density and found to be 20,000 cells per mL. The lid was removed from a 96-well Greiner plate and turned upside down. 20 μL of the 20,000 cells per mL suspension was then added directly into the middle of the circles found on the lid of the 96-well plate forming a small drop. 100 μL of media was added into the corresponding wells, used to maintain the […] of the drops, and the lid was flipped back over carefully placing it back onto the plate without disturbing the drop. The plate was then placed into the incubator for 3 days to allow the cells to migrate to the bottom of the drop due to gravity. After 3 days, […] of media was added to the corresponding wells a SCIVAX 96-well plate. The lid from the Greiner 96-well plate was removed and placed onto the SCIVAX plate allowing the drop to come in contact with the media and placed back into the incubator. After one hour, 200 μL of media was removed from the corresponding wells carefully without disturbing the spheroid and imaged.

The next assay addresses T2, CNK1 (Homo sapiens, UniProt Q969H4).
T2 construct: The PH-domain His-fusion proteins (CNK1 and AKT1) were expressed and immobilized on a NTA chip; made in house
T2 sequence (Q969H4 403-502 limits assumed): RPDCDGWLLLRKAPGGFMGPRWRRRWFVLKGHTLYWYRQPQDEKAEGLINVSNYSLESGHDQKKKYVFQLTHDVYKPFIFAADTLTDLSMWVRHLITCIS
The assay is described as follows: SPR competition, CNK1 binding to PIP3. The note with it: read-out: SPR Competition Percent inhibition of CNK1 binding to PIP3 at 50 μM, X = none.

The target in a further assay is T3, PH-domain of CNKSR1 (Homo sapiens, UniProt Q969H4).
T3 construct: The PH-domain His-fusion proteins (CNK1 and AKT1) were expressed and immobilized on a NTA chip; made in house
T3 sequence (Q969H4 403-502 limits assumed): T2 sequence (Q969H4 403-502 limits assumed)
In words: Surface plasmon resonance binding to CNK PH-domain. The conditions noted are these: Summary table for CNKSR1 inhibitors; read-out: SPR Kd. From the text: The PH-domain His-fusion proteins (CNK1 and AKT1) were expressed and immobilized on a NTA chip to a level of 10,000 response units or less.
Additionally, ligand-based approaches provided an alternative to structure based drug discovery.
For orientation: Surface plasmon resonance follows binding to a sensor surface in real time, without labels.

For a further assay, the system named is mut-KRAS cells. The assay is described as follows: Proliferation assay, mut-KRAS cell lines. It counts as cell-based. The conditions noted are these: average over mut-KRAS lines; read-out: Ave IC50 mut-KRAS. The method, then:
(§1) These cells were cultured in McCoys media with 10% FBS to 80% confluency. […] Cells were incubated for 72 hours with the drugs, and then viability was assessed using an MTS viability assay. Cells were exposed to MTS reagent (Promega) dissolved in PBS (Hyclone) at a concentration of 200 μL reagent/mL media for 2 hours. Absorbance was then read at 490 nm, and viability was expressed as a percentage normalized between the negative control (no cells plated) and the condition of cells with no drug added (100% viability) normalized as the upper limit of viability. A panel of 30 cell lines and an extensive characterization were obtained from Dr. John Minna (UTSW). All cell lines were cultured in RPMI 1640 with 10% FBS. […] IC50's were determined using Excelfit.

The next assay has as its system wt-KRAS cells. In words: Proliferation assay, wt-KRAS cell lines. It counts as cell-based. The conditions noted are these: average over wt-KRAS lines; read-out: Ave IC50 wt-KRAS. As to the method:
as §1

Assay [2] deals with mut-KRas NSCLC lines. In words: Proliferation assay 2D, mut-KRas NSCLC lines. The class given is cell-based. The method, then: A panel of 30 cell lines and an extensive characterization were obtained from Dr. John Minna (UTSW). All cell lines were cultured in RPMI 1640 with 10% FBS. Cells were treated with concentrations of agents at concentrations 0.01 to 50 μM and evaluated as described above. IC50's were determined using Excelfit.

One may read the Kd as the constant that tells how readily two partners part at equilibrium. With `CCOC(=O)/C=C/c1cc(NS(=O)(=O)c2cccs2)c2c(c1O)OCO2` [Compound 88, (E)-ethyl 3-(4-hydroxy-7-(thiophene-2-sulfonamido)benzo[d][1,3]dioxol-5-yl)acrylate], the Kd at PLEKHA7 PH-domain is 261 µM.

The IC50 is the concentration needed to halve the response being measured. What is called inhibition is the percentage by which the read-out fell short of the control. `COc1c(/C=C/C(=O)NC2CC2)c(NS(=O)(=O)c2cccs2)cc2c1OCO2` [Compound 110]: the “In vitro IC50 against mut-KRas NSCLC 3D ave” value with mut-KRas NSCLC lines [1] (mean of 6 mut-KRas NSCLC lines) was 1.2 µM. Also, the IC50 is 0.23 to 75 µM in the assay with mut-KRas NSCLC lines [1] (range across mut-Kras cell lines, read-out: In vitro IC50 against mut-KRas NSCLC 3D range); 1200 nM in the assay on mut-KRAS cells; 35.7 µM with wt-KRAS cells; 4.3 to 100 µM in the assay on mut-KRas NSCLC lines [2] (range across mut-Kras cell lines, read-out: In vitro IC50 against mut-KRas NSCLC 2D range). Also, the inhibition at 50 µM on CNK1 is 0%. In addition, the dissociation constant (Kd) on PH-domain of CNKSR1 was below 50 µM. In addition, the “In vitro IC50 against mut-KRas NSCLC 2D ave” value with mut-KRas NSCLC lines [2] (mean of 12 mut-KRas NSCLC lines) was determined as 15.7 µM.

Values taken from patent US10227356B2, “Compounds, compositions and methods for inhibiting CNKSR1” (Phusis Therapeutics, Inc., priority 2015, dated 2019).
